We go through ten compounds from US7888329B2, “Substituted aryl piperidinylalkynyladenosines as A2AR agonists” (PGxHealth, LLC, priority 2006, dated 2011).

pEC50, pKi: −log10 of the molar value. Like-named read-outs stand apart in the source and are kept apart here.

Assay [1] concerns the target T1, human A3 AR (Homo sapiens, UniProt P0DMS8).
T1 construct: expressed in transfected cells; membranes
T1 sequence (P0DMS8 1-318): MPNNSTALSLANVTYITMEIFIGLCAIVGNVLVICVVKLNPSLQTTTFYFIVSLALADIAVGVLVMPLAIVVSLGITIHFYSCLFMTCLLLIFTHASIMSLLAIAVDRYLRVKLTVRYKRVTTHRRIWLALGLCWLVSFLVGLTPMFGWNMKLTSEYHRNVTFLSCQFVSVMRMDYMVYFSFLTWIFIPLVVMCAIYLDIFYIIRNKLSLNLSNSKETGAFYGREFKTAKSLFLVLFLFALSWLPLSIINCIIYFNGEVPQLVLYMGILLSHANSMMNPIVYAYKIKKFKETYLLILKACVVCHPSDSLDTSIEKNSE
Put plainly: Radioligand competition binding with 125I-ABA, membranes of HEK 293 cells stably expressing the receptor. Here is the method:
(§1) Cell culture and membrane preparation. Sf9 cells were cultured in Grace's medium supplemented with 10% fetal bovine serum, 2.5 μg/ml amphotericin B and 50 μg/ml gentamycin in an atmosphere of 50% N2/50% O2. Viral infection was performed at a density of 2.5×10^6 cells/mL with a multiplicity of infection of two for each virus used. Infected cells were harvested 3 days post-infection and washed twice in insect PBS (PBS pH 6.3). Cells were then resuspended in lysis buffer (20 mM HEPES pH 7.5, 150 mM NaCl, 3 mM MgCl2, 1 mM α-mercaptoethanol (BME), 5 μg/mL leupeptin, 5 μg/mL pepstatin A, 1 μg/mL aprotinin, and 0.1 mM PMSF) and snap frozen for storage at −80° C. Cells were thawed on ice, brought to 30 mL total volume in lysis buffer, and burst by N2 cavitation (600 psi for 20 minutes). A low-speed centrifugation was performed to remove any unlysed cells (1000×g for 10 minutes), followed by a high-speed centrifugation (17,000×g for 30 minutes). The pellet from the final centrifugation was homogenized in buffer containing 20 mM HEPES pH 8, 1100 mM NaCl, 1% glycerol, 2 μg/mL leupeptin, 2 μg/mL pepstatin A, 2 μg/mL Aprotinin, 0.1 mM PMSF, and 10 μM GDP using a small glass homogenizer followed by passage through a 26 gauge needle. Membranes were aliquoted, snap frozen in liquid N2, and stored at −80° C. Membranes from cells stably expressing the human A1 AR (CHO K1 cells) or A3 AR (HEK 293 cells) were prepared as described (Robeva et al., 1996).
Radioligand Binding Assays. Radioligand binding to recombinant human A2A receptors in Sf9 cell membranes was performed using either the radiolabeled agonist, ^125I-APE (Luthin et al., 1995) or the radiolabeled antagonist, ^125I-ZM241385 (^125I-ZM). To detect the high affinity, GTPγS-sensitive state of A1 and A3 AR, we used the agonist, ^125I-ABA (Linden et al., 1985; Linden et al., 1993). Binding experiments were performed in triplicate with 5 μg (A2A) or 25 μg (A1 and A3) membrane protein in a total volume of 00.1 mL HE buffer (20 mM HEPES and 1 mM EDTA) with 1 U/mL adenosine deaminase and 5 mM MgCl2 with or without 50 μM GTPγS. Membranes were incubated with radioligands at room temperature for three hours (for agonists) or two hours (for antagonists) in Millipore Multiscreen® 96-well GF/C filter plates and assays were terminated by rapid filtration on a cell harvester (Brandel, Gaithersburg, Md.) followed by 4×150 μl washes over 30 seconds with ice cold 10 mM Tris-HCl, pH 7.4, 10 mM MgCl2. Nonspecific binding was measured in the presence of 50 μM NECA. Competition binding assays were performed as described (Robeva et al., 1996) using 0.5-1 nM ^125I-APE, ^125I-ZM241385, or ^125I-ABA. […] The Ki values for competing compound binding to a single site were derived from IC50 values with correction for radioligand and competing compound depletion as described previously (Linden, 1982).
(In general: Displacement assays read how much labelled ligand stays bound in the presence of the test substance.)

The subject of assay [2] is Purified human neutrophils. Description: Luminol enhanced chemiluminescence (neutrophil oxidative activity), fMLP stimulated. The class given is cell-based. The note with it: read-out: Functional. The source says:
Chemiluminescence Methods: Luminol enhanced chemiluminescence, a measure of neutrophil oxidative activity, is dependent upon both superoxide production and mobilization of the granule enzyme myeloperoxidase. The light is emitted from unstable high-energy oxygen species such as hypochlorous acid and singlet oxygen generated by activated neutrophils.
Purified human neutrophils (2×10^6/ml) suspended in Hanks balanced salt solution containing 0.1% human serum albumin (HA), adenosine deaminase (1 U/mL) and rolipram (100 nM) were incubated (37 C) in a water bath for 15 min with or without rhTNF (10 U/ml). Following incubation 100 µL aliquots of the PMN were transferred to wells (White walled clear bottom 96 well tissue culture plates Costar #3670; 2 wells/condition) containing […] and luminol (final concentration 100M) with or without adenosine agonist (final agonist concentrations 0.01-1000 nM). The plate was incubated 5 min (37 C) and then fMLP (50 l in HA; final concentration […]) was added to all wells.
Peak chemiluminescence was determined with a Victor 1420 Multilabel Counter in the chemiluminescence mode using the Wallac Workstation software. Data are presented as peak chemiluminescence as percent of activity in the absence of an adenosine agonist. The EC50 was determined using PRISM software. All compounds were tested with PMNs from three separate donors.

The target of assay [3] is T2, recombinant human A2A receptors (Homo sapiens, UniProt P29274).
T2 construct: expressed in transfected cells; host or cells: Sf9 insect cells infected with virus; membranes
Description: Radioligand competition binding with 125I-APE or 125I-ZM241385, Sf9 cell membranes. The note with it: 125I-APE or 125I-ZM241385, Sf9 membranes. The protocol: as §1, with “C.” for “C. Membranes from cells stably expressing the human A1 AR (CHO K1 cells) or A3 AR (HEK 293 cells) were prepared as described (Robeva et al., 1996).”
Radioligand Binding Assays. […] Binding experiments were performed in triplicate with 5 μg (A2A) or 25 μg (A1 and A3) membrane protein in a total volume of 00.1 mL HE buffer (20 mM HEPES and 1 mM EDTA) with 1 U/mL adenosine deaminase and 5 mM MgCl2 with or without 50 μM GTPγS. Membranes were incubated with radioligands at room temperature for three hours (for agonists) or two hours (for antagonists) in Millipore Multiscreen® 96-well GF/C filter plates and assays were terminated by rapid filtration on a cell harvester (Brandel, Gaithersburg, Md.) followed by 4×150 μl washes over 30 seconds with ice cold 10 mM Tris-HCl, pH 7.4, 10 mM MgCl2. Nonspecific binding was measured in the presence of 50 μM NECA.

The target of assay [4] is T3, human A1 AR (Homo sapiens, UniProt P30542).
T3 construct: expressed in transfected cells; membranes
T3 sequence (P30542 1-326): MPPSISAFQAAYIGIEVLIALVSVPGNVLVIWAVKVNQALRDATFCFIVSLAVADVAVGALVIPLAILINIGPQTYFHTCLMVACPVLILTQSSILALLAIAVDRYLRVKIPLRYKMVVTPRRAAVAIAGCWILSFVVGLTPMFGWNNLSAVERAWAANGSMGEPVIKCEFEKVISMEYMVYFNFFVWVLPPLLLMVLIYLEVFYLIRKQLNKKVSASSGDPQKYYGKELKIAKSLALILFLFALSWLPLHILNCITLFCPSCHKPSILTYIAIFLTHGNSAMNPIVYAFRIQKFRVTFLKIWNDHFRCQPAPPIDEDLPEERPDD
Description: Radioligand competition binding with 125I-ABA, membranes of CHO K1 cells stably expressing the receptor.

Where [5] appears, read: Ki derived from IC50, class symbols.

T2 sequence (P29274 whole entry): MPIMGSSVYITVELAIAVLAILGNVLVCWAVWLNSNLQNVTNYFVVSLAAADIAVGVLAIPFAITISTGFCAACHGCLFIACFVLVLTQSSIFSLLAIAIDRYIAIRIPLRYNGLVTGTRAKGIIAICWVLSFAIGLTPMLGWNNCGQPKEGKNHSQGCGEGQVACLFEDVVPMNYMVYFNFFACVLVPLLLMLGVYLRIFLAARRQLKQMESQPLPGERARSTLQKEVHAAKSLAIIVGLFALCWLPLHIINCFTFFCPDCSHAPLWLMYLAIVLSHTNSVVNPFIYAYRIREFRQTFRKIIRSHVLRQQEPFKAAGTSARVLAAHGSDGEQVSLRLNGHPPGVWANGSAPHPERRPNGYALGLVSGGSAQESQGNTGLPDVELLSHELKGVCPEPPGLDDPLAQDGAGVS

Turning to `Nc1nc(C#CCC2CCN(C(=O)Oc3ccccc3)CC2)nc2c1ncn2[C@@H]1O[C@H](C(=O)NC2CC2)C(O)[C@@H]1O` (some centres unmarked) [Compound 1, N-Cyclopropyl 2-{3-[1-(phenyloxycarbonyl)-4-piperidinyl]-1-propyn-1-yl}adenosine-5′-uronamide, reference compound], the negative-log Ki (pKi) in assay [1] (Ki derived from IC50) was 7.47; in assay [3] (Ki derived from IC50), 9.25; in assay [4] (Ki derived from IC50), 7.46. Moreover, the pEC50 in assay [2] (Homo sapiens, Neutrophil) is 9.25.
Take `Nc1nc(C#CCC2CCN(C(=O)OCc3ccccc3)CC2)nc2c1ncn2[C@@H]1O[C@H](C(=O)NC2CC2)C(O)[C@@H]1O` (some centres unmarked) [Compound 2, N-Cyclopropyl 2-{3-[1-(benzyloxycarbonyl)-4-piperidinyl]-1-propyn-1-yl}adenosine-5′-uronamide, reference compound]: the pKi in assay [1] (setting [5]) is > 7.00; in assay [3] (class symbols), > 9.00; in assay [4] (setting [5]), > 7.00. Further, the pEC50 in assay [2] (Homo sapiens, Neutrophil) was > 9.00.
For `Nc1nc(C#CCC2CCN(C(=O)Oc3cccc(C(F)(F)F)c3)CC2)nc2c1ncn2[C@@H]1O[C@H](C(=O)NC2CC2)C(O)[C@@H]1O` (some centres unmarked) [Compound 3, N-Cyclopropyl 2-{3-[1-(3-(trifluoromethyl)phenoxycarbonyl)-4-piperidinyl]-1-propyn-1-yl}adenosine-5′-uronamide], the results for the pKi in assay [1] (setting [5]), in assay [3] (class symbols) and in assay [4] (setting [5]) were > 7.00, > 9.00 and > 7.00, respectively. Further, the pEC50 in assay [2] (Homo sapiens, Neutrophil) is > 8.00.
For `Nc1nc(C#CCC2CCN(C(=O)Oc3ccccc3)CC2)nc2c1ncn2[C@@H]1O[C@H](CO)[C@@H](O)[C@H]1O` [Compound 4, 2-{3-[1-(Phenoxycarbonyl)piperidin-4-yl]propyn-1-yl}adenosine, reference compound], the pKi was > 8.00 in assay [1] (setting [5]), > 9.00 in assay [3] (class symbols) and > 7.00 in assay [4] (setting [5]). Further, the pEC50 in assay [2] (Homo sapiens, Neutrophil) was > 8.00.
For the compound `Nc1nc(C#CCC2CCN(C(=O)OCCOCc3ccccc3)CC2)nc2c1ncn2[C@@H]1O[C@H](C(=O)NC2CC2)C(O)[C@@H]1O` (some centres unmarked) [Compound 5, N-Cyclopropyl 2-{3-[1-(2-(benzyloxy)ethoxycarbonoyl)-4-piperidinyl]-1-propyn-1-yl}adenosine-5′-uronamide], the values for the negative-log Ki (pKi) in assay [1] (setting [5]), in assay [3] (class symbols) and in assay [4] (setting [5]) were > 7.00, > 9.00 and > 7.00, respectively. For the same compound, the pEC50 in assay [2] (Homo sapiens, Neutrophil) was > 8.00.
With `Nc1nc(C#CCC2CCN(C(=O)Oc3cccc(C(F)(F)F)c3)CC2)nc2c1ncn2[C@@H]1O[C@H](CO)C(O)[C@@H]1O` (some centres unmarked) [Compound 6, 2-{3-[1-((3-Trifluoromethyl)phenoxycarbonyl)piperidin-4-yl]propyn-1-yl}adenosine], the pKi in assay [1] (setting [5]) was > 8.00; in assay [3] (class symbols), > 9.00; in assay [4] (setting [5]) it was > 7.00. In assay [2] (Homo sapiens, Neutrophil), the pEC50 was > 8.00.
Consider `Nc1nc(C#CCC2CCN(C(=O)OCCOCc3ccccc3)CC2)nc2c1ncn2[C@@H]1O[C@H](CO)C(O)[C@@H]1O` (some centres unmarked) [Compound 7, 2-{3-[1-((2-Benzyloxy)ethoxycarbonyl)piperidin-4-yl]propyn-1-yl}adenosine], for which the results for the negative logarithm of the Ki (pKi) in assay [1] (setting [5]), in assay [3] (class symbols) and in assay [4] (setting [5]) were > 7.00, > 9.00 and > 7.00, respectively. Besides, in assay [2] (Homo sapiens, Neutrophil), the pEC50 was > 8.00.
In the case of `Nc1nc(C#CCC2CCN(C(=O)Oc3ccc(F)cc3)CC2)nc2c1ncn2[C@@H]1O[C@H](C(=O)NC2CC2)C(O)[C@@H]1O` (some centres unmarked) [Compound 8, N-Cyclopropyl 2-{3-[1-(4-fluorophenoxycarbonyl)-4-piperidinyl]-1-propyn-1-yl}adenosine-5′-uronamide], the results for the negative-log Ki (pKi) in assay [1] (setting [5]), in assay [3] (class symbols) and in assay [4] (setting [5]) were > 7.00, > 9.00 and > 7.00, respectively. For the same compound, the pEC50 in assay [2] (Homo sapiens, Neutrophil) was > 9.00.
On to `COC(=O)c1ccc(OC(=O)N2CCC(CC#Cc3nc(N)c4ncn([C@@H]5O[C@H](C(=O)NC6CC6)C(O)[C@@H]5O)c4n3)CC2)cc1` (some centres unmarked) [Compound 9, N-Cyclopropyl 2-{3-[1-(4-methoxycarbonylphenoxycarbanoyl)-4-piperidinyl]-1-propyn-1-yl}adenosine-5′-uronamide], for which the pKi in assay [1] (setting [5]) is > 7.00; in assay [3] (class symbols), > 9.00; in assay [4] (setting [5]), > 7.00. The pEC50 in assay [2] (Homo sapiens, Neutrophil) is > 8.00.
With “N-Cyclopropyl 2-[3-[1-(4-nitrophenoxycarbonyl) 4-propylpiperidine]}-1-carboxylate]adenosine-5′-uronamide [Compound 40]”, the pKi in assay [1] (setting [5]) is < 7.00. Also, the pEC50 in assay [2] (EC50 of peak chemiluminescence, human PMN, rolipram 100 nM, fMLP, three donors, class symbols) was > 7.00.

Usually pKi stands for −log10 of the Ki, conventionally taken in molar units.
